Read-outs that look alike come from different tables or passages of the source.
Experiments:
[1] = system: opioid-dependent participants; experiment: Treatment emergent adverse events in opioid-dependent participants; assay type: in vivo, human
Experimental: The efficacy of noribogaine in humans was evaluated in opioid-dependent participants in a randomized, placebo-controlled, double-blind trial. […] See U.S. application Ser. No. 14/214,157, filed Mar. 14, 2014 and Ser. No. 14/346,655, filed Mar. 21, 2014, which are incorporated herein by reference in their entireties.
Three cohorts of nine (9) subjects (6 administered noribogaine and 3 administered placebo in each cohort) were evaluated for tolerability, pharmacokinetics, and efficacy. Cohort 1 received a single dose of 60 mg noribogaine or placebo. Cohort 2 received a single dose of 120 mg noribogaine or placebo. Cohort 3 received a single dose of 180 mg noribogaine or placebo. […] Headaches were frequent in the placebo and 60 mg noribogaine treatment groups, but were attenuated in the 120 mg and 180 mg dose groups.

[2] = Plasma toxicokinetics in dogs, fourteen day repeat dose; assay type: in vivo, dog
Experimental: Noribogaine HCl was administered to groups of 4 male and 4 female dogs by single oral gavage daily for 14 days at doses of 0, 0.5, 1.0 and 5.0 mg/kg/day. An additional group of 4 male and 4 female dogs received either the vehicle control or 5.0 mg/kg/day for 14 days and were held for an additional 28 days after cessation of dosing to assess recovery from any potential drug-induced changes. The study was conducted under GLP guidelines and included comprehensive examinations of clinical signs, body weight, clinical pathology parameters, ophthalmologic examinations, ECG recordings and analyses of plasma for bioanalytical measurement of drug levels at appropriate intervals during the study. At the termination of the dosing phase and at the termination of the recovery phase, all dogs were subjected to a complete post-mortem examination including gross examination of major organs and histologic examination of an extensive list of tissues. Additional sections of brain were obtained from cerebrum, cerebellus, brain stem and spinal cord and examined histologically to evaluate potential effects on brain histopathology. In addition, these sections were examined with immunohistochemical stains for GFAP for evidence of gliosis and Calbindin for a more comprehensive examination of cerebellar Purkinje cells.

[3] = female, dog, plasma, po, 0.5 mg/kg, female dogs, Gr 2, 0.5 mg/kg, D1
[4] = female, dog, plasma, po, 0.5 mg/kg, female dogs, Gr 2, 0.5 mg/kg, D14
[5] = female, dog, plasma, po, 1 mg/kg, female dogs, Gr 3, 1.0 mg/kg, D1
[6] = female, dog, plasma, po, 1 mg/kg, female dogs, Gr 3, 1.0 mg/kg, D14
[7] = female, dog, plasma, po, 5 mg/kg, female dogs, Gr 4, 5.0 mg/kg, D1
[8] = female, dog, plasma, po, 5 mg/kg, female dogs, Gr 4, 5.0 mg/kg, D14
[9] = male, dog, plasma, po, 0.5 mg/kg, male dogs, Gr 2, 0.5 mg/kg, D1
[10] = male, dog, plasma, po, 0.5 mg/kg, male dogs, Gr 2, 0.5 mg/kg, D14
[11] = male, dog, plasma, po, 1 mg/kg, male dogs, Gr 3, 1.0 mg/kg, D1
[12] = male, dog, plasma, po, 1 mg/kg, male dogs, Gr 3, 1.0 mg/kg, D14
[13] = male, dog, plasma, po, 5 mg/kg, male dogs, Gr 4, 5.0 mg/kg, D1
[14] = male, dog, plasma, po, 5 mg/kg, male dogs, Gr 4, 5.0 mg/kg, D14

## CC[C@H]1CC2C[C@H]3c4[nH]c5ccc(O)cc5c4CCN(C2)C13 [noribogaine]
[1]; 60 mg (N = 6)
  TEAE: Catheter Site Infection: 0
  TEAE: Catheter Site Pain: 0
  TEAE: Catheter Site Related Reaction: 0
  TEAE: Cellulitis: 0
  TEAE: Diarrhoea: 0
  TEAE: Dry Mouth: 0
  TEAE: Ear and Labyrinth Disorders: 0
  TEAE: Epistaxis: 0
  TEAE: Euphoric Mood: 0
  TEAE: General Disorders and Administration Site Conditions: 0
  TEAE: Hyperaesthesia: 0
  TEAE: Infections and Infestations: 0
  TEAE: Limb Discomfort: 0
  TEAE: Malaise: 0
  TEAE: Nausea: 0
  TEAE: Oropharyngeal Pain: 0
  TEAE: Pseudoparalysis: 0
  TEAE: Respiratory, Thoracic and Mediastinal Disorders: 0
  TEAE: Rhinorrhoea: 0
  TEAE: Skin Discomfort: 0
  TEAE: Skin Irritation: 0
  TEAE: Skin and Subcutaneous Tissue Disorders: 0
  TEAE: Somnoience: 0
  TEAE: Tinnitus: 0
  TEAE: Tremor: 0
  TEAE: Urinary Tract Infection: 0
  TEAE: Vomiting: 0
[1]; 120 mg (N = 6)
  TEAE: Back Pain: 0
  TEAE: Catheter Site Infection: 0
  TEAE: Catheter Site Related Reaction: 0
  TEAE: Depressed Mood: 0
  TEAE: Dry Eye: 0
  TEAE: Dyspepsia: 0
  TEAE: Euphoric Mood: 0
  TEAE: Limb Discomfort: 0
  TEAE: Malaise: 0
  TEAE: Musculoskeletal and Connective Tissue Disorders: 0
  TEAE: Psychiatric Disorders: 0
  TEAE: Somnoience: 0
  TEAE: Urinary Tract Infection: 0
[1]; 180 mg (N = 6)
  TEAE: Catheter Site Infection: 0
  TEAE: Catheter Site Pain: 0
  TEAE: Depressed Mood: 0
  TEAE: Diarrhoea: 0
  TEAE: Dry Eye: 0
  TEAE: Dyspepsia: 0
  TEAE: Ear and Labyrinth Disorders: 0
  TEAE: Epistaxis: 0
  TEAE: Euphoric Mood: 0
  TEAE: Hyperaesthesia: 0
  TEAE: Malaise: 0
  TEAE: Pseudoparalysis: 0
  TEAE: Psychiatric Disorders: 0
  TEAE: Respiratory, Thoracic and Mediastinal Disorders: 0
  TEAE: Rhinorrhoea: 0
  TEAE: Skin Discomfort: 0
  TEAE: Skin Irritation: 0
  TEAE: Skin and Subcutaneous Tissue Disorders: 0
  TEAE: Somnoience: 0
  TEAE: Tinnitus: 0
  TEAE: Tremor: 0
[1]; single dose 60, 120 or 180 mg
  Adverse effects incl. hallucinatory effects: Few adverse effects of noribogaine were observed in any of the participants, including no hallucinatory effects
[2]; female dogs, Gr 2, 0.5 mg/kg, D1
  Cmax: 25.3 ng/mL
[2]; female dogs, Gr 2, 0.5 mg/kg, D14
  Cmax: 29.8 ng/mL
[2]; female dogs, Gr 3, 1.0 mg/kg, D1
  Cmax: 68.5 ng/mL
[2]; female dogs, Gr 3, 1.0 mg/kg, D14
  Cmax: 74.1 ng/mL
[2]; female dogs, Gr 4, 5.0 mg/kg, D1
  Cmax: 691 ng/mL
[2]; female dogs, Gr 4, 5.0 mg/kg, D14
  Cmax: 683 ng/mL
[2]; [3]
  AUC(0-inf): 44.9 ng·h/mL
  Tmax: 30 min
  half-life: 60 min
[2]; female, dog, plasma, po, 0.5 mg/kg, female dogs, Gr 2, 0.5 mg/kg, D1, read-out: AUC0-24 h
  AUC(0-t): 40.4 ng·h/mL
[2]; female, dog, plasma, po, 0.5 mg/kg, female dogs, Gr 2, 0.5 mg/kg, D1, read-out: AUC0-last
  AUC(0-t): 31.5 ng·h/mL
[2]; [4]
  AUC(0-inf): 45.7 ng·h/mL
  Tmax: 60 min
  half-life: 66 min
[2]; female, dog, plasma, po, 0.5 mg/kg, female dogs, Gr 2, 0.5 mg/kg, D14, read-out: AUC0-24 h
  AUC(0-t): 55 ng·h/mL
[2]; female, dog, plasma, po, 0.5 mg/kg, female dogs, Gr 2, 0.5 mg/kg, D14, read-out: AUC0-last
  AUC(0-t): 35.4 ng·h/mL
[2]; [5]
  AUC(0-inf): 165 ng·h/mL
  Tmax: 48 min
  half-life: 84 min
[2]; female, dog, plasma, po, 1 mg/kg, female dogs, Gr 3, 1.0 mg/kg, D1, read-out: AUC0-24 h
  AUC(0-t): 176 ng·h/mL
[2]; female, dog, plasma, po, 1 mg/kg, female dogs, Gr 3, 1.0 mg/kg, D1, read-out: AUC0-last
  AUC(0-t): 149 ng·h/mL
[2]; [6]
  AUC(0-inf): 197 ng·h/mL
  Tmax: 30 min
  half-life: 96 min
[2]; female, dog, plasma, po, 1 mg/kg, female dogs, Gr 3, 1.0 mg/kg, D14, read-out: AUC0-24 h
  AUC(0-t): 204 ng·h/mL
[2]; female, dog, plasma, po, 1 mg/kg, female dogs, Gr 3, 1.0 mg/kg, D14, read-out: AUC0-last
  AUC(0-t): 169 ng·h/mL
[2]; [7]
  AUC(0-inf): 3430 ng·h/mL
  Tmax: 36 min
  half-life: 258 min
[2]; female, dog, plasma, po, 5 mg/kg, female dogs, Gr 4, 5.0 mg/kg, D1, read-out: AUC0-24 h
  AUC(0-t): 3370 ng·h/mL
[2]; female, dog, plasma, po, 5 mg/kg, female dogs, Gr 4, 5.0 mg/kg, D1, read-out: AUC0-last
  AUC(0-t): 3370 ng·h/mL
[2]; [8]
  AUC(0-inf): 6280 ng·h/mL
  half-life: 342 min
[2]; female, dog, plasma, po, 5 mg/kg, female dogs, Gr 4, 5.0 mg/kg, D14, read-out: AUC0-24 h
  AUC(0-t): 5950 ng·h/mL
[2]; female, dog, plasma, po, 5 mg/kg, female dogs, Gr 4, 5.0 mg/kg, D14, read-out: AUC0-last
  AUC(0-t): 5950 ng·h/mL
[2]; [9]
  AUC(0-inf): 67.8 ng·h/mL
  Tmax: 42 min
  half-life: 78 min
[2]; male, dog, plasma, po, 0.5 mg/kg, male dogs, Gr 2, 0.5 mg/kg, D1, read-out: AUC0-24 h
  AUC(0-t): 59.7 ng·h/mL
[2]; male, dog, plasma, po, 0.5 mg/kg, male dogs, Gr 2, 0.5 mg/kg, D1, read-out: AUC0-last
  AUC(0-t): 46.6 ng·h/mL
[2]; male, dog, plasma, po, 0.5 mg/kg, male dogs, Gr 2, 0.5 mg/kg, D1, read-out: Cmax
  Cmax: 28.8 ng/mL
[2]; [10]
  AUC(0-inf): 68.2 ng·h/mL
  Tmax: 42 min
  half-life: 78 min
[2]; male, dog, plasma, po, 0.5 mg/kg, male dogs, Gr 2, 0.5 mg/kg, D14, read-out: AUC0-24 h
  AUC(0-t): 64.5 ng·h/mL
[2]; male, dog, plasma, po, 0.5 mg/kg, male dogs, Gr 2, 0.5 mg/kg, D14, read-out: AUC0-last
  AUC(0-t): 53.2 ng·h/mL
[2]; male, dog, plasma, po, 0.5 mg/kg, male dogs, Gr 2, 0.5 mg/kg, D14, read-out: Cmax
  Cmax: 29.4 ng/mL
[2]; [11]
  AUC(0-inf): 121 ng·h/mL
  Tmax: 54 min
  half-life: 72 min
[2]; male, dog, plasma, po, 1 mg/kg, male dogs, Gr 3, 1.0 mg/kg, D1, read-out: AUC0-24 h
  AUC(0-t): 120 ng·h/mL
[2]; male, dog, plasma, po, 1 mg/kg, male dogs, Gr 3, 1.0 mg/kg, D1, read-out: AUC0-last
  AUC(0-t): 102 ng·h/mL
[2]; male, dog, plasma, po, 1 mg/kg, male dogs, Gr 3, 1.0 mg/kg, D1, read-out: Cmax
  Cmax: 58.6 ng/mL
[2]; [12]
  AUC(0-inf): 196 ng·h/mL
  Tmax: 48 min
  half-life: 108 min
[2]; male, dog, plasma, po, 1 mg/kg, male dogs, Gr 3, 1.0 mg/kg, D14, read-out: AUC0-24 h
  AUC(0-t): 210 ng·h/mL
[2]; male, dog, plasma, po, 1 mg/kg, male dogs, Gr 3, 1.0 mg/kg, D14, read-out: AUC0-last
  AUC(0-t): 172 ng·h/mL
[2]; male, dog, plasma, po, 1 mg/kg, male dogs, Gr 3, 1.0 mg/kg, D14, read-out: Cmax
  Cmax: 67.6 ng/mL
[2]; [13]
  AUC(0-inf): 3630 ng·h/mL
  Tmax: 36 min
  half-life: 282 min
[2]; male, dog, plasma, po, 5 mg/kg, male dogs, Gr 4, 5.0 mg/kg, D1, read-out: AUC0-24 h
  AUC(0-t): 3520 ng·h/mL
[2]; male, dog, plasma, po, 5 mg/kg, male dogs, Gr 4, 5.0 mg/kg, D1, read-out: AUC0-last
  AUC(0-t): 3520 ng·h/mL
[2]; male, dog, plasma, po, 5 mg/kg, male dogs, Gr 4, 5.0 mg/kg, D1, read-out: Cmax
  Cmax: 693 ng/mL
[2]; [14]
  AUC(0-inf): 6960 ng·h/mL
  Tmax: 54 min
  half-life: 390 min
[2]; male, dog, plasma, po, 5 mg/kg, male dogs, Gr 4, 5.0 mg/kg, D14, read-out: AUC0-24 h
  AUC(0-t): 6400 ng·h/mL
[2]; male, dog, plasma, po, 5 mg/kg, male dogs, Gr 4, 5.0 mg/kg, D14, read-out: AUC0-last
  AUC(0-t): 6400 ng·h/mL
[2]; male, dog, plasma, po, 5 mg/kg, male dogs, Gr 4, 5.0 mg/kg, D14, read-out: Cmax
  Cmax: 716 ng/mL
